Where a name gives a salt, the structure may show the parent alone.
Columns and labels:
[1] = tested on: cell cycle-related genes in A549 cells; assay: Cell Cycle RT2 Profiler PCR Array in A549 cells; assay type: cell-based, human; conditions: doxorubicin 1 μM or T12 50 μM, 24 h
Method: FIG. 6. T12 and doxorubicin activate cell cycle-related genes in a similar fashion. A549 cells were treated doxorubicin (1 μM) or T12 (50 μM) for 24 h. Total RNA was purified, reverse-transcribed and subjected to Cell Cycle RT^2 Profiler PCR Array. A, shown are logarithmic scatter plots of relative mRNA levels of treated vs untreated cells. […] B, shown are bar plots of the relative expression (RQ) of the over-expressed genes indicated in A. Results are shown in fold expression respect to untreated cells.
RNA was purified from cells using the Ilustra RNAspin Mini (GE Healthcare) and the cDNA was prepared using RT^2 First Strand™ cDNA kit (Qiagen). The cDNA from treated or untreated cells was used to screen the Cell Cycle RT^2 Profiler™ PCR Array for human (PAHS-020Z, Qiagen), following manufacturer's procedures (Qiagen). qPCR was performed using RT^2 SYBR® Green ROX™ qPCR Mastermix (Qiagen) and the StepOnePlus™ Real-Time PCR System (Applied Biosystems). qPCR data were analyzed using manufacturer software.

human recombinant GPBP-1 = molecular target: T1, human recombinant GPBP-1 (Homo sapiens, UniProt Q9Y5P4); assay: GPBP-1 in vitro autophosphorylation (kinase) assay with [γ-32P]ATP; assay type: biochemical
T1 construct: made in house; host or cells: Pichia pastoris
T1 sequence (Q9Y5P4 1-624): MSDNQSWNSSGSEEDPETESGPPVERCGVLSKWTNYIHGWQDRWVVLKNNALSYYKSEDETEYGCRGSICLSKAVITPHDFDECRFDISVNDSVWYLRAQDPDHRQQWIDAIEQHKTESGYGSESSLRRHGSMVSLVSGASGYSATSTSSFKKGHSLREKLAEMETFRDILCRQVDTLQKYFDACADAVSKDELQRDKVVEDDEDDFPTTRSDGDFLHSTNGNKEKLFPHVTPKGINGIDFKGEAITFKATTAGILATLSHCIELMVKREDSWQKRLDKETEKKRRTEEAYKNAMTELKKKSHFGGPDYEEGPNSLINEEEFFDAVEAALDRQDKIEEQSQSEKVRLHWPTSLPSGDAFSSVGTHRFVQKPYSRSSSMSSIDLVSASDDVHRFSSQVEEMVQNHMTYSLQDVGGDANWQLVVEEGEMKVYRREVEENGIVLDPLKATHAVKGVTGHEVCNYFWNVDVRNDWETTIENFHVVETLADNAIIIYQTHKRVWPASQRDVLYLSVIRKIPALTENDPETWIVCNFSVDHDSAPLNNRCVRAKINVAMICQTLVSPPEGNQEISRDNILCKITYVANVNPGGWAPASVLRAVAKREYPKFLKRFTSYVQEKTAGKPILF
Source text: To explore the possibility that doxorubicin, an anti-tumor agent targeting topoisomerase II (Pommier et al. 2010), operates through GPBP-1, human recombinant GPBP-1 (Raya et al. 1999) was subjected to in vitro autophosphorylation in the presence or absence of doxorubicin and T12 (FIG. 1A).

[2] = tested on: CSC/SP compartment of A549 cell cultures; assay: Side population (CSC/SP) staining with Hoechst 33342, flow cytometry; assay type: cell-based, human; conditions: for cell content of the CSC/SP compartment: single compound
Method: FIG. 9. […] A, cultures of A549 cells were incubated with Hoescht 33342 in the absence (−) or presence (+) of verapamil (50 μM) and fumitremorgin C (10 μM). Circled area (R2) denotes the region containing the flow cytometry events representing CSC/SP cells. B, shown are the relative abundance of CSC/SP cells (%) in cell cultures untreated (control) or treated with the indicated compounds.
A549 cells were suspended at 10^6 cells/mL in culture medium containing 10 mM Hepes (previously warmed at 37° C.). Hoechst 33342 was added at 5 μg/mL and cells incubated in a 37° C. bath with shaking for 90 min in the dark. Before incubation (and after staining) an aliquot of 1 mL was taken and verapamil (50 μM) and fumitremorgin C (10 μM) added. Cells were centrifuged at 300×g for 5 min at 4° C. and suspended in cold medium with 10 mM Hepes. Cells were kept at 4° C. until analysis. Analysis of Hoechst 33342 efflux was assessed using a Flow Cytometer with incident 350 nm ultraviolet light. The resulting fluorescence was measured at two wavelengths using 424/44 BP and 675 LP filters that allow detection of Hoechst blue and red, respectively. […] Doxorubicin content in either population was estimated with incident 488 nm blue light and 585/40 filter. Verapamil and fumitremorgin C werer used to identify SP region.

[3] = molecular target: T2, recombinant human GPBP-1 produced in insect cells (Homo sapiens, UniProt Q9Y5P4); assay: Affinity constants for GPBP-1 by the Benesi-Hildebrand method; assay type: binding
T2 construct: FLAG (N); made in house; host or cells: SF9 insect cells (baculovirus, pFastBac1)
T2 sequence (Q9Y5P4 1-624): T1 sequence (Q9Y5P4 1-624)
Method: FIG. 1. […] A, to assess the inhibitory activity of T12 and doxorubicin on GPBP-1 kinase activity and their synergism, approximately 200 ng of yeast FLAG-GPBP-1 from two different preparations with low and high specific activities were incubated with [γ-^32P]ATP in the absence (−) or presence (+) of the indicated compounds and concentrations. Mixtures were subjected to Western blot and autoradiographed (^32P). The levels of GPBP were further analyzed using anti-FLAG (WB). B, in the panel is shown affinity constants of the indicated compounds for recombinant human GPBP-1 produced in insect cells calculated by the Benesi-Hildebrand method. Recombinant yeast GPBP-1 was expressed in Pichia pastoris and affinity-purified as previously described (Raya et al. 1999, raya et al. 2000). To express and purify recombinant FLAG-GPBP-1 from SF9 insect cells, the cDNA of FLAG-GPBP-1 was cloned in the baculovirus expression vector pFastBac1. The plasmid was transformed into DH10Bac competent cells and the recombinant baculovirus was produced following manufacturer's recommendations (Bac-to-Bac™ Baculovirus Expression System, Invitrogen, Life Technologies). Baculovirus was used to infect SF9 cells and GPBP-1 in the supernatant of culture media was purified by affinity chromatography using anti-FLAG agarose (Sigma-Aldrich) following manufacturer's recommendations. GPBP-1 phosphorylation assays were performed as previously described (Raya et al. 1999).

[4] = tested on: GPBP expression in A549 cells; assay: GPBP expression in A549 cells after treatment; assay type: cell-based, human
Method: A549 cells treated for 4 weeks with 1 μM doxorubicin (A549-DR). Fifty μg of cellular lysates of A549 and A549-DR cells were analyzed by Western blot to assess the levels of GPBP using GPBP-specific mAb N27. Tubulin was stained with specific antibodies and used as loading control.
This was assessed by selecting A549 cells with doxorubicin and analyzed GPBP expression by Western blot (FIG. 15).

Structure (SMILES)	expression of CDKN1A (p21), GADD45A, MDM2 and SERTAD1 [1]	inhibitory activity on GPBP-1 autophosphorylation in combination with doxorubicin (human recombinant GPBP-1; T12 plus doxorubicin)	CSC/SP compartment relative to untreated cultures, co-treatment ([2]; doxorubicin and T12 co-treatment)	cell content of the CSC/SP compartment [2]	affinity / manner of binding to GPBP-1 [3]	GPBP expression in A549 cells in response to treatment [4]	inhibition of GPBP-1 autophosphorylation (human recombinant GPBP-1; compound alone)	binding to GPBP-1, fold stronger than T12 (affinity constants) ([3]; relative to T12)
COc1ccc(-c2ccc(-c3cccc(C)c3)c(C)c2)c(CCC(=O)O)c1 [T12, 3-[4″-methoxy-3,2′-dimethyl-(1,1′;4′,1″)terphenyl-2″-yl] propionic acid]	up-regulated	synergistic	one fourth	reduction	light-moderated affinity	no evidence for increased expression of GPBP	–	–
COc1cccc2c1C(=O)c1c(O)c3c(c(O)c1C2=O)C[C@@](O)(C(=O)CO)C[C@@H]3O[C@H]1C[C@H](N)[C@H](O)[C@H](C)O1 [doxorubicin, doxorubicin hydrochloride, reference compound]	up-regulated	–	–	reduction	irreversible	increased GPBP cell expression	efficiently inhibited	~10^5 fold

Source: patent publication US9066938B2, “GPBP-1 inhibition and its therapeutic use” (Fibrostatin S.L., priority 2012, dated 2015)
